Patent US20150343016A1, “CHEMICAL ENTITIES AND THERAPEUTIC USES THEREOF” (The Regents of the University of Colorado, a body corporate, priority 2010, published 2015)

Tests used:
[1] = system: Drosophila Chk1 or p53 mutant larvae; assay: Drosophila screen for agents that increase the sensitivity of mutant larvae to radiation (NCI Diversity Set I and Natural Products Set); assay type: in vivo; settings: irradiated Drosophila Chk1 or p53 mutant larvae
Source text: The Diversity Set I from the NCI-DTP, which is comprised of 1990 molecules chosen for chemical structural diversity and not for biological activity was screened using the Drosophila screen (U.S. Pat. No. 7,695,899).
Table 1. […] A total of 2225 molecules in Diversity Set I (n=1990) and Natural Products Set (n=235) libraries from the NCI-DTP were screened for agents that increased the sensitivity of Drosophila Chk1 or p53 mutant larvae to radiation. […] MT=microtubule; DS=double strand; topo=topoisomerase; NT=nucleotide
The Natural Product Set, also from the NCI-DTP, which contains 235 small molecules derived from natural sources was selected next. These molecules were identified initially in extracts from plants, microbes and marine organisms, but are now synthesized to sufficient purity for distribution by the NCI as plated sets.
(§1) The screen was performed using irradiated mutant larvae. Hits from the screen were defined as those that reduced the survival of IRRADIATED larvae compared to the population of drugs being tested (approximately 80 molecules at a time) or compared to DMSO controls in the re-test. A hit could therefore act by enhancing the effect of radiation, or by simply killing larvae as a single agent, or both. To distinguish among these possibilities, hits from the screen were re-tested against larvae with and without irradiation.

[2] = system: p53 mutant Drosophila larvae; assay: Drosophila larval survival to adulthood (eclosion), drug with and without IR, p53 mutants; assay type: in vivo; settings: drug alone (without radiation), wide range of doses
Protocol: as §1, with “To validate the identification of Bouvardin from the primary screen, the effect of this molecule on Drosophila larvae alone or in combination with radiation were assessed (FIG. 12). The” for “The”
(§2) In FIG. 12 survival after each treatment is expressed as the fraction of animals that emerged (“eclosed”) as viable adults. The averages have been normalized to the average fraction eclosed in no IR/drug control for the respective genotype. Error bars extend beyond fractional survival of 1.0 simply because of normalization. (A-C) Fraction eclosed for WT and grp and p53 mutants at 16 uM of Bouvardin, with and without IR. The data are averages of 3-8 biological replicates per sample. Dotted line on each graph denotes expected ‘fraction eclosed’ if drug and IR act additively. IR doses were 4000R for WT and grp and 3000R for p53 because of the higher radiation sensitivity of the latter. (D) Fraction eclosed for Minute mutants and yw controls after exposure to 0 (−IR) and 2000R (+IR) of X-rays. N ranged from 86-207 per genotype per treatment, in 3 biological replicates per sample. *=p<0.01; **=<0.001. 100R=1Gy. Error bar=1 standard deviation.
(§3) The activity of Bouvardin in Drosophila alone or in combination with ionizing radiation (IR) was assessed. Drug concentrations of 10-20 μM were used to approximate the conditions of the original screen. Third instar larvae were irradiated and cultured on medium containing drug. The survival of larvae was quantified 10 days later by measuring the rate of eclosion into adulthood. […] For example, IR alone reduces the eclosion of p53 mutants to 0.63±0.05 and 10 μM of drug reduces it to 0.82±0.15. The combination of Bouvardin and IR reduces eclosion to 0.49, nearly the exact number expected (0.63±0.05×0.82±0.15=0.51±0.10) if the two treatments produced an additive effect. The expected eclosion for additive effect of drug and radiation are denoted with a white dotted line in each graph.
(§4) Wild type flies were of the Sevelin stock. Mutants have been described before. p535A-1-4 results from targeted deletion of the gene, and is maintained and used as homogygotes. grpl (Chk1 mutants) results from a p-element insertion and is a genetic null. Homozygotes of the latter were identified by the lack of GFP marker on the balancer chromosome. Minute mutants were of the genotypes y[1]w[*]; P[w[+mC]=lacW]RpS131/CyO and P[lacW]RpL36G0471 w67c23/FM7a. Because Minute mutants were in yw or w background, y1w1 (Bloomington stock #1495) was used as ‘wild type’ control in these experiments.
(§5) Feeding stage 3rd instar larvae were irradiated as previously described (2). Briefly, 120 hr old larvae were rinsed to remove food and passed through sizing sieves to obtain animals of uniform size. Larvae were placed in a Petri dish and irradiated using a TORREX X-ray generator, set at 115 kV and 5 mA (producing 2.4 Rads/sec or 1.44 Gy/min) Irradiated larvae were then cultured on cornmeal-agar media (2) containing drug or DMSO carrier. In all experiments using human cells, cells in 96-well plates were irradiated with a RS2000 Biological Irradiator (Rad Source Technologies, Inc.) delivering 1 Gy/min.

[3] = system: Det562 Head and Neck Squamous Cell Carcinoma cells; assay: Streptovitacin A alone and in combination with taxol on human cancer cells; assay type: cell-based; settings: at a wide range of doses
Protocol: FIG. 11 depicts that streptovitacin A synergizes with taxol on Det562 Head and Neck Cancer cells. Concentrations for streptovitacin/taxol are shown. CI=1 indicates additive effects; CI>1 indicates antagonistic effects; CI<1 indicates synergy. The y-axis is “Combination Index” (CI).
The effect of streptovitacin A on human cancer cells alone and in combination with taxol was tested.
FIG. 11 depicts that at a wide range of doses the two drugs are synergistic (CI<1) in Det562 Head and Neck Squamous Cell Carcinoma cells.

H157 lung cancer cells = assay: CellTiter-Glo Luminescent Cell Viability Assay, Streptovitacin with ionizing radiation, H157; assay type: cell-based, human; settings: drug added 24 hr before irradiation
Protocol: FIG. 15 depicts CI values for Streptovitacin A and radiation on H157 lung cancer cells.
For FIG. 15 CellTiter-Glo® Luminescent Cell Viability Assay (Promega G7570) were used to determine the effect of Streptovitacin (concentrations in uM) in combination with ionizing radiation (in Gy, X-axis). The drug was added 24 hr before irradiation. (A) Faction affected (Fa) determined by the following formula 1−(x/y) where x is the experimental sample and y is the no Bouvardin/no drug control) (B) Corresponding CI values. Cells were irradiated in a Faxitron X-ray cabinet x-ray system (Lincolnshire, Ill.) set at 115 kV and 5 mA (producing 5.33 Rads/sec or 3.2 Gy/min) Note that this X-ray machine, produces a higher dose rate (lower exposure time) than the X-ray machine used on H157 cells in FIG. 18. Even with the same settings, higher IR doses are needed to achieve the same Fa. More important, combinatorial effects with drugs are similar if not identical on the two machines.

[4] = system: wild type Drosophila larvae; assay: Drosophila larval survival to adulthood (eclosion), drug with and without IR, wild type; assay type: in vivo; settings: wild type Drosophila larvae
Protocol: as §1, with “To validate the identification of Bouvardin from the primary screen, the effect of this molecule on Drosophila larvae alone or in combination with radiation were assessed (FIG. 12). The” for “The”
as §2, §3, §4
as §5, with “In all experiments using human cells, cells in 96-well plates were irradiated with a RS2000 Biological Irradiator (Rad Source Technologies, Inc.) delivering 1 Gy/min.” left out

Det562 cells = assay: CellTiter-Glo Luminescent Cell Viability Assay, Bouvardin with Taxol, Det562; assay type: cell-based, human; settings: Det562 versus FaDu
Protocol: “Combination Index” computation. Combination Indices were calculated using CalcuSyn software (Biosoft), which uses the method of Chou and Talalay. This method first computes drug-induced effect using the Hill Equation: where E is the measured effect; C is the drug concentration; Emax is the full range of drug effect, usually at or near 100%; IC50 is the drug concentration producing the median effect of 50%; and n is the curve shape parameter describing the steepness of the concentration-effect relationship. The Chou and Talalay method then linearizes the Hill Equation by logarithmic transformation as: where fu is the fraction of cells left unaffected after drug exposure, fa is the fraction of cells affected by the exposure, C is the drug concentration used, Cm is the concentration to achieve the median effect, and n is the curve shape parameter. Cm and n are equivalent to IC50 and n, respectively, in the Hill Equation. The values of n (obtained from the slope), nlog(Cm) (obtained from the absolute value of the intercept), and, therefore, Cm are obtained by plotting log(fu−1−1) versus log(C). […]
The growth inhibitory effects of Bouvardin with Taxol were evaluated using CellTiter-Glo® Luminescent Cell Viability Assay (Promega G7570). […] Luminescence of each well was measured using an automated plate reader.

[5] = system: xenografts of Rhabdomyosarcoma; settings: cited from earlier work
[6] = system: cells from human squamous cell carcinoma, melanoma, non-small cell lung carcinoma, malignant gliomas and small cell lung cancer; settings: Topotecan and its analogs; preclinical models; cited from earlier work

## CC[C@@]1(O)C(=O)OCc2c1cc1n(c2=O)Cc2cc3ccccc3nc2-1 [20-S Camptothecin]
[1]
  Reproducible hit that increased the sensitivity of larvae to radiation; screen in which identified: Camptothecin (1)

## CC[C@H](C)[C@H]1NC(=O)[C@@H](NC(=O)[C@@H](CC(C)C)N(C)C(=O)[C@@H]2CCCN2C(=O)C(C)O)[C@@H](C)OC(=O)[C@H](Cc2ccc(OC)cc2)N(C)C(=O)[C@@H]2CCCN2C(=O)[C@H](CC(C)C)NC(=O)[C@@H](C)C(=O)[C@H](C(C)C)OC(=O)C[C@@H]1O (stereo partly shown) [Didemnin B]
[1]
  Reproducible hit that increased the sensitivity of larvae to radiation; screen in which identified: Didemnin B (2)

## C[C@H]1CC[C@@H](C(C)(C)O)CC2=C1CC[C@@H]2C [Guaiol]
[1]
  Reproducible hit that increased the sensitivity of larvae to radiation; screen in which identified: Guaiol (2)

## C[C@H]1C[C@@](C)(O)C[C@@H]([C@H](O)CC2CC(=O)NC(=O)C2)C1=O [Streptovitacin A, streptovitacin A]
[2]
  fraction of p53 mutant larvae that survive to adulthood versus wild type larvae: lower than the fraction of wild type larvae that survive to adulthood
[2]; listed as streptovitacin A
  fraction of p53 mutant larvae that survive to adulthood versus wild type larvae: kills p53 mutant larvae selectively over wild type larvae
[3]
  Combination Index (CI), streptovitacin A with taxol: < 1
H157 lung cancer cells
  interaction of drug with radiation: synergize at most combinations tested
[4]
  manner in which drug and ionizing radiation act together to kill larvae: act synergistically
[4]; 10 μM drug + IR
  observed average for the combination versus expected additive value: significantly lower than the expected additive value

## CC(=O)O[C@H]1C(=O)[C@@]2(C)[C@H]([C@H](OC(=O)c3ccccc3)[C@]3(O)C[C@H](OC(=O)[C@H](O)[C@@H](NC(=O)c4ccccc4)c4ccccc4)C(C)=C1C3(C)C)[C@]1(OC(C)=O)CO[C@@H]1C[C@@H]2O [Taxol, paclitaxel, reference compound]
Det562 cells
  sensitivity of cells to Taxol alone: more sensitive to Taxol alone than FaDu cells

## CC[C@@]1(O)C(=O)OCc2c1cc1n(c2=O)Cc2cc3c(CN(C)C)c(O)ccc3nc2-1 [Topotecan]
[5]
  interaction with radiation: Synergy between Topotecan and radiation has been confirmed
[6]
  interaction with radiation: synergize with radiation

## Bleomycin
[1]
  Reproducible hit that increased the sensitivity of larvae to radiation; screen in which identified: Bleomycin (2)
